Experimental data: US20100331297A1, “MODULATION OF PROTEIN TRAFFICKING” (FOLDRX PHARMACEUTICALS, INC., priority 2007, published 2010)

How the values were obtained:
[1] = biological target: T1, ΔF508 CFTR (Homo sapiens, UniProt P13569, DEL508-508); test: Corrector activity, YFP halide (iodide) quenching assay in FRT cells expressing ΔF508 CFTR; assay type: cell-based; design: expressed in transfected cells; host or cells: Fischer rat thyroid (FRT) cells; details: Corrector EC50, FRT cells ΔF508 CFTR/YFP, 24 hours with compound at 37° C., forskolin and genistein
T1 sequence (P13569 with tags, fused parts or gaps DEL508-508): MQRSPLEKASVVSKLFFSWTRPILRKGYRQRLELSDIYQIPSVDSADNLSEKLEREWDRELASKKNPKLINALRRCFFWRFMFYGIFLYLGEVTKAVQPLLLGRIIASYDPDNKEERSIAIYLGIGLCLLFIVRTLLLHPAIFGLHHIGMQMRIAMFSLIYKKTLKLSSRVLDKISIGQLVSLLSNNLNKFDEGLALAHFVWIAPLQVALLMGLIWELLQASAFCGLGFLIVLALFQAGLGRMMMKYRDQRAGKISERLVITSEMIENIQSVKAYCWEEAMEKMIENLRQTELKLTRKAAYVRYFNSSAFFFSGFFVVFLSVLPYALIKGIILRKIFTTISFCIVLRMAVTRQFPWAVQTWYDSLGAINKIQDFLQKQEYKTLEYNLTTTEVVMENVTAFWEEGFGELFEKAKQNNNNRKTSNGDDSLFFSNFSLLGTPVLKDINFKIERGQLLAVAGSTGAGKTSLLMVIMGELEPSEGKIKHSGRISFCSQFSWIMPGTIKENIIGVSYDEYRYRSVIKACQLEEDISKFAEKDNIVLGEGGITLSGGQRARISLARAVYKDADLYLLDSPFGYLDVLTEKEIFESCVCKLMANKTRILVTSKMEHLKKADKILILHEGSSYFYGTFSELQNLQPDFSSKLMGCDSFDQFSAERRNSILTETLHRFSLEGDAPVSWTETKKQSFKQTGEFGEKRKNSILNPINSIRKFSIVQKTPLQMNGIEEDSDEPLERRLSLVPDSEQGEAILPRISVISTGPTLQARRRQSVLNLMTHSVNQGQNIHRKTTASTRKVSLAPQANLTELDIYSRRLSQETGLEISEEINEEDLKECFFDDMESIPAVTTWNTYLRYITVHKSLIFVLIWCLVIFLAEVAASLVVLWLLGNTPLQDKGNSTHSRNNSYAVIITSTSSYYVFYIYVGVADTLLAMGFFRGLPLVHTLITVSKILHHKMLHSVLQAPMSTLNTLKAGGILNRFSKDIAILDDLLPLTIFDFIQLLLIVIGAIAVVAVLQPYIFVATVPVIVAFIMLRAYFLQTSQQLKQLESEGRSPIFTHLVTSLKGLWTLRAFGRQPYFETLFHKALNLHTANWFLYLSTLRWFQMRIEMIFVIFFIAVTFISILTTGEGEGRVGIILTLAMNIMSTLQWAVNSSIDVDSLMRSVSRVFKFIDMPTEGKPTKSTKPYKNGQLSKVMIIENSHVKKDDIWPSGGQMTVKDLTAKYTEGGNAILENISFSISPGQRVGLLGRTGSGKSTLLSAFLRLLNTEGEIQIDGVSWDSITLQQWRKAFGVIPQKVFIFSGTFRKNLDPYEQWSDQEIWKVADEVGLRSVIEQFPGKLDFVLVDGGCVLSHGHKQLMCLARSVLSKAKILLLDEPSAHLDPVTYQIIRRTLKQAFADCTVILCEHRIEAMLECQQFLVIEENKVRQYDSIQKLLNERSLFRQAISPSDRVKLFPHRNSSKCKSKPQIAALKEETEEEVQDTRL
Outline: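 FRT cells co-expressing ΔF508 CFTR and halide-sensitive YFP were incubated 24 h at 37° C with compounds, then stimulated 30 min at 37° C in PBS with forskolin and genistein. Endpoint fluorescence after iodide injection was normalized to initial reading; EC50 from 4-parameter fit with bottom constrained to DMSO control.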

[2] = biological target: T1, ΔF508 CFTR; test: Stabilization of ΔF508 CFTR in CFBE cells (western blot, densitometry); assay type: cell-based; details: 16 hours at 37° C.
From the text: In addition, efficacy of a compound can be evaluated before (first in time), concomitantly or subsequently to the above-mentioned test modalities by monitoring, e.g., (i) modulation (e.g., an improvement) of the stability of a trafficking defective protein, (ii) modulation (e.g., an improvement) of proper, physiological trafficking of the trafficking defective protein, or (iii) modulation (e.g., a restoration) in one or more functions of a trafficking defective protein. For example, in some cases, proteins (e.g., protein mutants such as ΔF508 CFTR) are prematurely degraded. Thus, the efficacy of a given compound to modulate protein trafficking can be determined by monitoring the stability of a protein in the presence as compared to the absence of the compound. For example, cells expressing a trafficking defective protein (e.g., expressing endogenously or expressing an exogenous transgene encoding a trafficking defective protein such as ΔF508 CFTR) can be cultured in the presence or absence of a compound for at least 1 hour (e.g., at least 2 hours, at least 4 hours, at least 6 hours, at least 8 hours, at least 12 hours, at least 16 hours, at least 24 hours, at least 36 hours, or at least 48 hours). Cell lysates can be prepared from the different populations of cells, suspended in Laemmli buffer (with or without reducing agent) and subjected to sodium dodecyl sulfate-polyacrylamide gel electrophoresis (SDS-PAGE). Using antibodies that specifically recognize the trafficking defective protein (e.g., CFTR), the amount of the protein in the presence as compared to in the absence of a compound can be determined by western or dot-blotting techniques. […] Where a modified state (e.g., glycosylation or phosphorylation) of a protein is indicative of increased stability, a change in the modified state of a protein can also be used to determine if a compound stabilizes the trafficking defective protein. For example, the amount of glycosylated CFTR (e.g., ΔF508 CFTR) can be assessed in the presence as compared to the absence of a compound.
The compounds can be tested for their ability to stabilize ΔF508 CTFR. CFBE cells, a cell line generated by transformation of cystic fibrosis tracheo-bronchial cells (ΔF508 CTFR homozygous) with SV40 (Bruscia et al. (2002) Gene Ther. 9(11):683-685), can be cultured with 10 μM of the selected compounds, or 10 μM VRT-325 for 16 hours at 37° C. (VRT-325 is described in, e.g., Van Goor et al. (2006) Am. J. Physiol. Lung Cell Mol. Physiol. 290:L1117-L1130). A population of cells can also be cultured with the dimethyl sulfoxide (DMSO) solvent as a control.
Following incubation, cells were lysed, solubilized in Laemmli buffer, and subjected to SDS-PAGE. CFTR protein were visualized by western blotting using an antibody specific for CFTR. Culturing CFBE cells with compound 25 (see Table I for structure) increased the amount of cellular ΔF508 CFTR protein.
The effect of different concentrations of compound 25 on ΔF508 CFTR was tested in a dose response experiment. […] The relative amounts of glysosylated and unglycosylated ΔF508 CFTR protein were visualized by western blotting (FIG. 10A), and the band intensities wer quantitated by scanning and densitometry (FIG. 10B). […] The relative amounts of glysosylated and unglycosylated ΔF508 CFTR protein were visualized by western blotting (FIG. 11A), and the band intensities wer quantitated by scanning and densitometry (FIG. 11B).

## CC(C)(C)n1nc(-c2ccc(Cl)cc2)c2c(N)ncnc21 [compound 25]
[1]
  EC50: 2 to 5 µM
[2]; 10 μM
  amount of cellular ΔF508 CFTR protein (western blot): increased
  amount of the glycosylated form of ΔF508 CFTR (western blot): increased
  effect on stabilizing ΔF508 CFTR relative to VRT-325: comparable or better
[2]; 1.25-10 μM (compound 25), 1-10 μM (compound 5)
  glycosylated (Band B) ΔF508 CFTR protein vs absence of compound, dose response: increased
